{"source": "patent US20240423911A1", "about": "“EMULSION COMPOSITION” (AstaReal Co., Ltd., priority 2018, published 2024)", "origin": "cited, not measured here", "key": {"[1]": {"conditions": "Takahashi et al. 2004"}}, "data": [{"molecule": "CC1=C(/C=C/C(C)=C/C=C/C(C)=C/C=C/C=C(C)/C=C/C=C(C)/C=C/C2=C(C)C(=O)C(O)CC2(C)C)C(C)(C)CC(O)C1=O", "note": "(stereo not drawn) [Astaxanthin, 3,3′-dihydroxy-β,β-carotene-4,4′-dione]", "values": [{"measurement": "mutagenicity", "setting": "[1]", "value": "no mutagenicity has been observed"}, {"measurement": "antioxidative activity relative to vitamin E", "setting": "higher than that of vitamin E", "value": "approximately 1000 times"}, {"measurement": "antioxidative activity relative to β-carotene", "setting": "higher than that of β-carotene", "value": "~40", "unit": "times"}]}]}
